Laboratory results: patent US11161854B2, “Indazolyl-spiro[2.2]pentane-carbonitrile derivatives as LRRK2 inhibitors, pharmaceutical compositions, and uses thereof” (Merck Sharp & Dohme Corp., priority 2017, dated 2021)

The molecules below were run against GST-tagged truncated human mutant G2019S LRRK2 (Homo sapiens (Human), UniProt Q5S007, G2019S) (assay: LRRK2 G2019S Km ATP LanthaScreen Assay). Settings: 134 μM ATP (Km ATP); fluorescein-labeled LRRKtide substrate; mean IC50 values.
Type: biochemical
Experimental: The IC50 values reported herein were measured as follows.
Biological Assay: LRRK2 Km ATP LanthaScreen™ Assay
The data presented for the Km ATP LanthaScreen™ Assay represents mean IC50 values based on several test results and may have reasonable deviations depending on the specific conditions and reagents used. Assays were performed in the presence of 134 μM ATP (Km ATP). Upon completion, the assay was stopped and phosphorylated substrate detected with a terbium (Tb)-labeled anti-pERM antibody (cat. no. PV4898). The compound dose response was prepared by diluting a 10 mM stock of compound to a maximum concentration of […] in 100% dimethylsulfoxide followed by custom fold serial dilution in dimethylsulfoxide nine times. Twenty nanoliters of each dilution was spotted via a Labcyte Echo onto a 384-well black-sided plate (Corning 3575) followed by 15 μl of a 1.25 nM enzyme solution in 1× assay buffer (50 mM Tris pH 8.5, 10 mM MgCl2, 0.01% Brij-35, 1 mM EGTA, 2 mM dithiothreitol, 0.05 mM sodium orthovanadate). Following a 15-minute incubation at room temperature, the kinase reaction was started with the addition of 5 μl of 400 nM fluorescein-labeled LRRKtide peptide substrate and 134 μM ATP solution in 1× assay buffer. The reaction was allowed to progress at ambient temperature for 90 minutes. The reaction was then stopped by the addition of 20 μl of TR-FRET Dilution Buffer (Life Technologies, Carlsbad, Calif.) containing 2 nM Tb-labeled anti-phospho LRRKtide antibody and 10 mM EDTA (Life Technologies, Carlsbad, Calif.). After an incubation of 1 hour at room temperature, the plate was read on an EnVision multimode plate reader (Perkin Elmer, Waltham, Mass.) with an excitation wavelength of 337 nm (Laser) and a reading emission at both 520 and 495 nm. […] Abase uses a 4 parameter (4P) logistic fit based on the Levenberg-Marquardt algorithm.

Chain of GST-tagged truncated human mutant G2019S LRRK2 (Q5S007 970-2527 G2019S): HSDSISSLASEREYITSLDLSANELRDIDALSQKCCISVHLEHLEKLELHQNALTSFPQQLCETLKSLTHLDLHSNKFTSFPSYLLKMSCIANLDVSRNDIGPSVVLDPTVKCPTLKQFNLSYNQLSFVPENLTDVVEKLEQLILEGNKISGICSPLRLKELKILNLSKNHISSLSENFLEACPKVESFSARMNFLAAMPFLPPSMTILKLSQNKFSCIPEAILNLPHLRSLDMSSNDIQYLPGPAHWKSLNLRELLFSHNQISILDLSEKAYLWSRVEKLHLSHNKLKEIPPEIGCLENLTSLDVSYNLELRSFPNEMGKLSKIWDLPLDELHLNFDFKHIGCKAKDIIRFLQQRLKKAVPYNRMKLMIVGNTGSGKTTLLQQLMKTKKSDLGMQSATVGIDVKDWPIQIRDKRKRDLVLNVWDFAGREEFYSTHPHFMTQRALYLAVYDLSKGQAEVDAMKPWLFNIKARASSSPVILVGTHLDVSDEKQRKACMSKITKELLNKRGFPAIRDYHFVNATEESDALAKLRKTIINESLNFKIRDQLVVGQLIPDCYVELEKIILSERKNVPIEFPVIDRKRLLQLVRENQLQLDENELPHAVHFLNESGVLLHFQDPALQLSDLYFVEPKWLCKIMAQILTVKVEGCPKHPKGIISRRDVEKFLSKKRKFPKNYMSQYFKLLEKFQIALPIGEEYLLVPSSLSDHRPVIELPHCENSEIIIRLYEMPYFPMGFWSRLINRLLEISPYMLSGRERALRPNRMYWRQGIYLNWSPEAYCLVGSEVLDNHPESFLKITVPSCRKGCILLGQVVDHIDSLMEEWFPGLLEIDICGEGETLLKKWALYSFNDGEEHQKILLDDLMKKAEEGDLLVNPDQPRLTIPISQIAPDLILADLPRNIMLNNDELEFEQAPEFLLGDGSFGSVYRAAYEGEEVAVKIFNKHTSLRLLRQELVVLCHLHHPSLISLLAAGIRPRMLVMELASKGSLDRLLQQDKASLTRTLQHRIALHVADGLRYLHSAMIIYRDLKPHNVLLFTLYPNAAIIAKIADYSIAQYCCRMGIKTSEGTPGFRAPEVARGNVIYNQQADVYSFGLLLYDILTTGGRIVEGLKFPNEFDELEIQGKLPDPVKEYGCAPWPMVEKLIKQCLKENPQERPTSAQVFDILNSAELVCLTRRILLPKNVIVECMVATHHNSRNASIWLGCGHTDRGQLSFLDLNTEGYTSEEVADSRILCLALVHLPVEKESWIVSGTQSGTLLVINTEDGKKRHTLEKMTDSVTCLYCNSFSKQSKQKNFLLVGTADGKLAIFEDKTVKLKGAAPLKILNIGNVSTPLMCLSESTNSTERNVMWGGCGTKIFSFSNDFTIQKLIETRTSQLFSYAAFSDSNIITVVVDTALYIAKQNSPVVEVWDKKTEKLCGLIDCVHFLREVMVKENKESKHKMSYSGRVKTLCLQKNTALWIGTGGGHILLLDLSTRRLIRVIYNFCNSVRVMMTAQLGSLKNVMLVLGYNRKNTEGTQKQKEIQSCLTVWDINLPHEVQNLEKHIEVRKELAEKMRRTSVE

Compound | IC50 [nM]
C[C@H]1CN(c2cc(-n3ncc4ccc([C@]5(C#N)CC56CC6)cc43)ccn2)CCN1S(C)(=O)=O [Example 6.5] | 1.5
C[C@H]1CN(c2cc(-n3ncc4ccc([C@@]5(C#N)CC56CC6)cc43)ncn2)CCN1C1CCOC1 (single isomer, unassigned) [Example 3.8-2] | 0.8
COC1(C(C)(C)O)CCN(c2cc(-n3ncc4ccc([C@@]5(C#N)CC56CC6)cc43)ncn2)C1 (single isomer, unassigned) [Example 3.10-3] | 3.1
Cc1nc(N2CC3(C(C)(C)O)CC2C3)cc(-n2ncc3ccc(C4(C#N)CC45CC5)cc32)n1 (single isomer, unassigned) [Example 2.4-2, 1-(1-(6-(4-(2-hydroxypropan-2-yl)-2-azabicyclo[2.1.1]hexan-2-yl)-2-methylpyrimidin-4-yl)-1H-indazol-6-yl)spiro[2.2]pentane-1-carbonitrile] | 0.6
COc1nc(N2CC3(C(C)(C)O)CC2C3)cc(-n2ncc3ccc(C4(C#N)CC45CC5)cc32)n1 (single isomer, unassigned) [Example 2.5-2, 1-(1-(6-(4-(2-hydroxypropan-2-yl)-2-azabicyclo[2.1.1]hexan-2-yl)-2-methoxypyrimidin-4-yl)-1H-indazol-6-yl)spiro[2.2]pentane-1-carbonitrile] | 0.8
C[C@H]1CN(c2cc(-n3ncc4ccc([C@@]5(C#N)CC56CC6)cc43)ncn2)CCN1C1CCOC1 (single isomer, unassigned) [Example 3.8-1] | 1.6
Cc1cc(-n2ncc3ccc([C@]4(C#N)CC45CC5)cc32)nc(N)n1 [Example 4.19] | 0.6
CC(C)(O)C12CC(C1)N(c1cc(-n3ncc4ccc([C@]5(C#N)CC56CC6)cc43)nc(N3CCC3)n1)C2 [Example 8.5, (S)-1-(1-(2-(azetidin-1-yl)-6-(4-(2-hydroxypropan-2-yl)-2-azabicyclo[2.1.1]hexan-2-yl)pyrimidin-4-yl)-1H-indazol-6-yl)spiro[2.2]pentane-1-carbonitrile] | 9.8
CC(C)(O)[C@@H]1CCN(c2cc(-n3ncc4cc(F)c(C5(C#N)CC56CC6)cc43)ncn2)C1 (single isomer, unassigned) [Example 5.7-1] | 21.7
CC(C)(O)[C@@H]1CCN(c2cc(-n3ncc4cc(F)c(C5(C#N)CC56CC6)cc43)ncn2)C1 (single isomer, unassigned) [Example 5.7-2] | 2.6
CC(C)(O)C12CC(C1)N(c1cc(-n3ncc4ccc([C@@]5(C#N)CC56CC6)cc43)ccn1)C2 [Example 6.1-2] | 5.3
C[C@@H]1CN(c2cc(-n3ncc4ccc([C@@]5(C#N)CC56CC6)cc43)ncn2)CCN1C1CCOC1 (single isomer, unassigned) [Example 3.7-3] | 9
CC(C)(O)C12CC(C1)N(c1cc(-n3ncc4ccc(C5(C#N)CC56CC6)cc43)ccn1)C2 (single isomer, unassigned) [Example 6.1, (R or S)-1-(1-(2-(4-(2-hydroxypropan-2-yl)-2-azabicyclo[2.1.1]hexan-2-yl)pyridin-4-yl)-1H-indazol-6-yl)spiro[2.2]pentane-1-carbonitrile] | 1.2
CCc1nc(C)cc(-n2ncc3ccc([C@]4(C#N)CC45CC5)cc32)n1 [Example 4.27] | 3.2
Cc1nc(N2C[C@@H]3C[C@H]2CN3C2(C)COC2)cc(-n2ncc3ccc([C@]4(C#N)CC45CC5)cc32)n1 [Example 11.4] | 8.6
N#C[C@@]1(c2ccc3cnn(-c4cc(C5CCN(C6COC6)CC5)ncn4)c3c2)CC12CC2 [Example 4.18] | 18.7
C[C@@H]1CN(c2cc(-n3ncc4cnc(C5(C#N)CC56CC6)cc43)ncn2)C[C@H](C)[C@]1(C)O (single isomer, unassigned) [Example 5.4-1] | 15
COCc1nc(N2CC(OC)C2)cc(-n2ncc3ccc([C@]4(C#N)CC45CC5)cc32)n1 [Example 4.5] | 2.6
COCc1nc(N2C[C@@H](C)[C@@](C)(O)[C@@H](C)C2)cc(-n2ncc3ccc([C@]4(C#N)CC45CC5)cc32)n1 [Example 4.10] | 0.6
COCc1nc(N2CCN(C3COC3)[C@@H](C)C2)cc(-n2ncc3ccc([C@]4(C#N)CC45CC5)cc32)n1 [Example 4.11-2] | 0.7
CC1CN(c2cc(-n3ncc4ccc([C@@]5(C#N)CC56CC6)cc43)ncn2)CC1C(C)(C)O (single isomer, unassigned) [Example 3.6-3] | 9.8

Compound | IC50 [nM]
CC1CN(c2cc(-n3ncc4ccc([C@@]5(C#N)CC56CC6)cc43)ncn2)CC1C(C)(C)O (single isomer, unassigned) [Example 3.6-1] | 2.2
CC1C(C(C)(C)O)CCN1c1cc(-n2ncc3ccc([C@@]4(C#N)CC45CC5)cc32)ncn1 (single isomer, unassigned) [Example 3.5-7] | 5.1
C[C@@H]1CN(c2cc(-n3ncc4ccc([C@@]5(C#N)CC56CC6)cc43)ncn2)CCN1C1CCOC1 (single isomer, unassigned) [Example 3.7-1] | 8
COCc1nc(C)cc(-n2ncc3ccc([C@]4(C#N)CC45CC5)cc32)n1 [Example 4.24] | 10.3
Cc1cc(-n2ncc3ccc(C4(C#N)CC45CC5)cc32)cc(N2CC3(C(C)(C)O)CC2C3)n1 (single isomer, unassigned) [Example 7.3-2, (R or S)-1-(1-(2-(4-(2-hydroxypropan-2-yl)-2-azabicyclo[2.1.1]hexan-2-yl)-6-methylpyridin-4-yl)-1H-indazol-6-yl)spiro[2.2]pentane-1-carbonitrile] | 4.6
CS(=O)(=O)N1CCN(c2cc(-n3ncc4ccc([C@]5(C#N)CC56CC6)cc43)ccn2)CC1 [Example 4.14] | 2.8
CC(C)(O)C12CC(C1)N(c1cc(-n3ncc4ccc([C@]5(C#N)CC56CC6)cc43)cc(F)n1)C2 [Example 6.3] | 15
CC(C)(O)C12CC(C1)N(c1cc(-n3ncc4c(F)cc(C5(C#N)CC56CC6)cc43)ncn1)C2 (single isomer, unassigned) [Example 4.15-2] | 2.3
COCc1nc(N2CC3(C(C)(C)O)CC2C3)cc(-n2ncc3ccc(C4(C#N)CC45CC5)cc32)n1 (single isomer, unassigned) [Example 2.3-2, (R or S)-1-(1-(6-(4-(2-hydroxypropan-2-yl)-2-azabicyclo[2.1.1]hexan-2-yl)-2-(methoxymethyl)pyrimidin-4-yl)-1H-indazol-6-yl)spiro[2.2]pentane-1-carbonitrile] | 1.2
COCc1nc(N2CCN(C3COC3)[C@H](C)C2)cc(-n2ncc3ccc([C@]4(C#N)CC45CC5)cc32)n1 [Example 4.11-1] | 1.3
CC1CN(c2cc(-n3ncc4ccc([C@]5(C#N)CC56CC6)cc43)ncn2)CC1C(C)(C)O (single isomer, unassigned) [Example 3.6-2] | 0.6
Cc1nc(N2CC3(C(C)(C)O)CC2C3)cc(-n2ncc3c(F)cc(C4(C#N)CC45CC5)cc32)n1 (centres unmarked) [Example 4.16] | 0.6
CC(C)(O)[C@@H]1CCN(c2cc(-n3ncc4cnc(C5(C#N)CC56CC6)cc43)ccn2)C1 (single isomer, unassigned) [Example 6.6-2] | 3.4
CN1CCOC2(C1)CN(c1cc(-n3ncc4ccc([C@]5(C#N)CC56CC6)cc43)ncn1)C2 [Example 4.13] | 0.6
CC1C(C(C)(C)O)CCN1c1cc(-n2ncc3ccc([C@@]4(C#N)CC45CC5)cc32)ncn1 (single isomer, unassigned) [Example 3.5-4] | 0.6
CC(C)(O)C12CC(C1)N(c1cc(-n3ncc4cnc(C5(C#N)CC56CC6)cc43)ccn1)C2 (single isomer, unassigned) [Example 6.7-1, 1-(1-(2-(4-(2-hydroxypropan-2-yl)-2-azabicyclo[2.1.1]hexan-2-yl)pyridin-4-yl)-1H-pyrazolo[4,3-c]pyridin-6-yl)spiro[2.2]pentane-1-carbonitrile] | 59
COC1(C(C)(C)O)CCN(c2cc(-n3ncc4ccc([C@@]5(C#N)CC56CC6)cc43)ncn2)C1 (single isomer, unassigned) [Example 3.10-1] | 15.1
CC(C)(O)C12CC(C1)N(c1cc(-n3ncc4cnc(C5(C#N)CC56CC6)cc43)ccn1)C2 (single isomer, unassigned) [Example 6.7-2, 1-(1-(2-(4-(2-hydroxypropan-2-yl)-2-azabicyclo[2.1.1]hexan-2-yl)pyridin-4-yl)-1H-pyrazolo[4,3-c]pyridin-6-yl)spiro[2.2]pentane-1-carbonitrile] | 7.8
Cc1nc(N2CCN(C3(C)COC3)CC2)cc(-n2ncc3ccc([C@]4(C#N)CC45CC5)cc32)n1 [Example 11.1, (S)-1-(1-(2-methyl-6-(4-(3-methyloxetan-3-yl)piperazin-1-yl)pyrimidin-4-yl)-1H-indazol-6-yl)spiro[2.2]pentane-1-carbonitrile] | 0.6
CC(C)(O)[C@@H]1CCN(c2cc(-n3ncc4ccc([C@]5(C#N)CC56CC6)cc43)ccn2)C1 [Example 6.2-2] | 0.9
